Test results: patent US9744175B2, “Compositions of combinations of non-covalent DNA binding agents and anti-cancer and/or anti-inflammatory agents and their use in disease treatment” (INDUS PHARMACEUTICALS, INC., priority 2012, dated 2017)

Experiments:
U2OS = assay: Growth inhibition in tumor cell lines (Table 2); assay type: cell-based, human; details: Osteosacroma, WT, lack of EGFR
[1] = test system: SW620 colon tumor xenograft; assay: SW620 colon tumor xenograft model; assay type: in vivo, mice
yeast rad51 mutation = assay: Alamar Blue cell survival assay in yeast cells; assay type: cell-based
Method: (§1) The cells are diluted 100-fold in yeast complete medium. 100 μL of diluted cells are seeded in 96 well plates with or without a non-covalent DNA binding compound and incubated for 24 hours at 30° C. The following day, an equal volume of yeast complete medium containing 1% alamar blue is added and incubated at 30° C. for two hours. Fluorescence intensity is measured in a fluorescent reader to calculate the inhibition effect of non-covalent DNA binding agents in mutant and wild type yeast cells.
(§2) Yeast cells that carry mutations in different genes involved in homologous recombination (rad 50, rad51, rad52, and rad57) and nucleotide excision/double strand repair (rad1) are grown to stationary culture overnight.

Wild type yeast = assay: Alamar Blue cell survival assay in yeast cells; assay type: cell-based
Method: as §1, §2

yeast rad50 mutation = assay: Alamar Blue cell survival assay in yeast cells; assay type: cell-based
Method: as §1, §2

yeast rad52 mutation = assay: Alamar Blue cell survival assay in yeast cells; assay type: cell-based
Method: as §1, §2

yeast rad1 mutation = assay: Alamar Blue cell survival assay in yeast cells; assay type: cell-based
Method: as §1, §2

SW620 = assay: Growth inhibition in tumor cell lines (Table 2); assay type: cell-based, human; details: SW620, colon, KRAS mutation
Method: (§3) Three novel non-covalent DNA binding agents of the invention, NSC 718813, NSC 723734 and NSC 726260, are tested in five different EGFR-resistant, K-Ras mutant cancer cell lines. These cell lines represent colorectal (SW480, SW620 and HCT116) and breast cancer (MDA-MB-231 and […]).
(§4) The in vitro assays to evaluate the anticancer potential of non-covalent DNA binding agents were measured by using one or more of the assays described below.
(§5) Tumor cells are plated in 96 well plates at a density of 8,000 to 10,000 cells per well in 100 uL volume and grown overnight. On the second day, the cells are supplemented with medium containing an appropriate dilution of the compounds to be tested. The cells are treated with the test compounds for two more days and the growth medium was replaced with fresh medium containing 3% Alamar Blue, incubated for 2-3 hours and plates are read in a SpectraMax Gemini XS fluorescence plate reader (Molecular Devices).

MDA231 = assay: Growth inhibition in tumor cell lines (Table 2); assay type: cell-based, human; details: MDA231, breast, KRAS & BRAF (ERK+)
Method: as §3, §4, §5

SW480 = assay: Growth inhibition in tumor cell lines (Table 2); assay type: cell-based, human; details: SW480, colon, KRAS mutation
Method: as §3, §4, §5

CEM = assay: Growth inhibition in tumor cell lines (Table 2); assay type: cell-based, human; details: leukemia, PTEN deficiency
Method: as §3, §4, §5

MDA-MB-468 = assay: Growth inhibition in tumor cell lines (Table 2); assay type: cell-based, human; details: MDA-MB-468, breast, ERK+ (EGFR over expression), PTEN deficiency
Method: as §3, §4, §5

HCT116 = assay: Growth inhibition in tumor cell lines (Table 2); assay type: cell-based, human; details: HCT116, colon, KRAS mutation, MLH1 deficiency
Method: as §3, §4, §5

Jurkat = assay: Growth inhibition in tumor cell lines (Table 2); assay type: cell-based, human; details: leukemia, PTEN deficiency
SW403 = assay: Growth inhibition in tumor cell lines (Table 2); assay type: cell-based, human; details: SW403, colon, WT (EGFR over expression)
HCT116 (mlh−) = assay: siRNA inhibition of p53 and REV functions, alamar blue growth inhibition; assay type: cell-based, human; details: for Fold improvement in IC50, p53: p53 siRNA vs control; for Fold improvement in IC50, rev: rev siRNA vs control; for IC50: no siRNA knock out, read-out: IC50, Control
Method: (§6) siRNA specific for different genes is purchased from Dharmacon (Thermo. Fisher Scientific Dharmacon Products, Lafayette, Colo. 80026) and the protocol recommended by the supplier is utilized. Confluent cells are trypsinized and 5000 cells are seeded in a well in the presence or absence of siRNA in 100 μL medium. The cells are incubated with siRNA for two days. A non-covalent DNA binding agent of the invention is added in a 10 μL volume and incubated for another 48 hours. After treatment with the agent, the medium is replaced with 1% alamar blue containing medium to measure fluorescence after two hours.
as §6, with “from Dharmacon (Thermo Fisher Scientific” for “from Dharmacon (Thermo. Fisher Scientific”, “two hours. […] The results are presented in FIGS. 14-18 (SEQ ID NO:3-12, respectively) and Table 7.” for “two hours.”

U2OS Wild type = assay: siRNA inhibition of MMR, p53 and REV functions, alamar blue growth inhibition; assay type: cell-based, human; details: for Fold improvement in IC50, mlh1: mlh1 siRNA vs control; for IC50: no siRNA knock out, read-out: IC50, Control; for Fold improvement in IC50, p53: p53 siRNA vs control; for Fold improvement in IC50, rev: rev siRNA vs control
Method: as §6
as §6, with “from Dharmacon (Thermo Fisher Scientific” for “from Dharmacon (Thermo. Fisher Scientific”, “two hours. […] The results are presented in FIGS. 14-18 (SEQ ID NO:3-12, respectively) and Table 7.” for “two hours.”

Structure (SMILES) | IC50 (U2OS) [nM] | IC50 (yeast rad51 mutation) [nM] | IC50 (Wild type yeast) [nM] | IC50 (yeast rad50 mutation) [nM] | IC50 (yeast rad52 mutation) [nM] | IC50 (yeast rad1 mutation) [nM] | IC50 (SW620) [nM] | IC50 (MDA231) [nM] | IC50 (SW480) [nM] | IC50 (CEM) [nM] | IC50 (MDA-MB-468) [nM] | IC50 (HCT116) [nM] | IC50 (Jurkat) [nM] | IC50 (SW403) [nM] | Fold improvement in IC50, p53 (HCT116 (mlh−)) [fold] | Fold improvement in IC50, rev (HCT116 (mlh−)) [fold] | Fold improvement in IC50, mlh1 (U2OS Wild type) [fold] | IC50 (U2OS Wild type) [nM] | Fold improvement in IC50, p53 (U2OS Wild type) [fold] | Fold improvement in IC50, rev (U2OS Wild type) [fold] | further results
COc1cc2c(cc1OCCCCCOc1cc3c(cc1OC)C(=O)N1CCC[C@H]1C(=O)N3)N=C[C@@H]1CCCN1C2=O [NSC 718813] | 202 | 7000 | > 250000 | 90000 | 90000 | 11000 | 236 ± 37.2 | 54 | 48 | 51 ± 0.6 | 8 ± 1.2 | 17 | 17 ± 0.2 | 210 | 12.5 | 7.1 | 3.0 | 300 | 10 | 5 | tumor burden in SW620 colon tumor xenograft model ([1]; Q1 Dx5 IV followed by Q4Dx3 IP administration): reduces tumor burden
COc1cc2c(cc1OCCCCN1CCN(CCCCOc3cc4c(cc3OC)C(=O)N3CCC[C@H]3C=N4)CC1)N=C[C@@H]1CCCN1C2=O [NSC 723734] | 178 | 28000 | > 250000 | 17000 | 50000 | 15000 | 175 ± 25 | 394 | 575 | 49 ± 0.8 | 22 ± 0.7 | 160 | 45 ± 4 | 550 | 2.2 | 2.2 | 3.5 | 70 | 1.2 | >70 | dose-reduction index (DRI) of combination with cisplatin ([1]; SW620 colon tumor xenograft mouse model): significant dose-reduction index (DRI); quantitative analysis of combination with cisplatin ([1]; combination doses achieving >50% efficacy): synergistic with cisplatin; synergy with cisplatin in SW620 colon tumor xenograft mouse model ([1]; intermittent IP administration of the two drugs): excellent synergy with cisplatin; synergy with cisplatin at lower (minimally active) cisplatin dose ([1]; intermittent IP administration, SW620 xenograft in mice): synergistic with cisplatin and restores antitumor activity of cisplatin; activity in SW620 colon tumor xenograft model ([1]; intraperitoneal, once daily administration for 7 days): superior activity to NSC718813; reduction in SW620 colon tumor xenograft ([1]; intravenous and intraperitoneally administered): dose-dependent reduction; IC50 (HCT116 (mlh−)): 300 nM
COc1cc2c(cc1OCCCC(=O)Nc1ccc3ccc4cccc5ccc1c3c45)N=C[C@@H]1CCCN1C2=O [NSC 726260] | 397 | 4500 | 45000 | 20000 | 15000 | 15000 | 1050 ± 50 | 501 | 1080 | 161 ± 0.4 | 364 | 550 | 114 ± 26.7 | 1020 | 3.8 | 5.0 | 135 | 400 | 1.1 | 135 | pharmacological activity in SW620 colon tumor xenograft model ([1]; combined IV and IP administration): limited pharmacological activity; IC50 (HCT116 (mlh−)): 750 nM
